Test results published in ChEMBL document CHEMBL1201862, “PubChem BioAssay data set” (2004).
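Where inhibition never reached the appropriate level, the endpoint shown equals the highest concentration tested. Otherwise, values were interpolated linearly from a five-concentration, 48-hour dose response in 96-well plates. The concentration for 50% growth inhibition is given as GI50.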 Activity calls are given as the source filed them. Rule as the data show it: active = GI50 up to about 1.1 µM and inactive = higher.

Assays:
Assay in all cases: inhibition of tumour cell growth, NCI panel, 48 h
[1] = tested on: 786-0
[2] = tested on: A498
[3] = tested on: ACHN
[4] = tested on: CAKI-1
[5] = tested on: CCRF-CEM
[6] = tested on: HCC 2998
[7] = tested on: HCT-116
[8] = tested on: HOP-92
[9] = tested on: HT-29
[10] = tested on: IGROV-1
[11] = tested on: KM12
[12] = tested on: M14
[13] = tested on: NCI-H23
[14] = tested on: OVCAR-8
[15] = tested on: RPMI-8226
[16] = tested on: RXF 393
[17] = tested on: SF-268
[18] = tested on: SK-MEL-2
[19] = tested on: SNB-19
[20] = tested on: TK-10

Measured: GI50

Cc1cc(NCCCCCCCNc2cc(C)nc3cc([N+](=O)[O-])ccc23)c2ccc([N+](=O)[O-])cc2n1
inactive: [1] 4.8 µM | [2] 10.8 µM | [3] 12.7 µM | [4] 23.7 µM | [5] 2.04 µM | [6] 11.1 µM | [7] 1.69 µM | [8] 16.5 µM | [9] 2.53 µM | [10] 9.44 µM | [11] 1.85 µM | [12] 10.7 µM | [13] 5.18 µM | [14] 1.87 µM | [15] 1.87 µM | [16] 8.18 µM | [17] 2.4 µM | [18] 24.7 µM | [19] 10.3 µM | [20] 17.7 µM

CN(C)CCCNc1ccnc2cccc([N+](=O)[O-])c12
inactive: [1] 14.1 µM | [2] 15.5 µM | [3] 5 µM | [4] 13.3 µM | [5] 28.9 µM | [6] 13.3 µM | [7] 13.7 µM | [8] 10.6 µM | [9] 12.1 µM | [10] 12.1 µM | [11] 12.8 µM | [12] 7.05 µM | [13] 5.9 µM | [14] 22 µM | [15] 27.3 µM | [16] 25.5 µM | [17] 16.4 µM | [18] 17.2 µM | [19] 19.6 µM | [20] 15.7 µM

Cn1c2cc(Cl)ccc2c2ccc3c(c21)C(=O)C=CC3=O
inactive: [1] 18.8 µM | [2] 68.7 µM | [3] 16.8 µM | [4] 13.5 µM | [5] 3.68 µM | [6] > 100 µM | [7] 20.8 µM | [8] 19 µM | [9] 31.4 µM | [10] 28.4 µM | [11] > 100 µM | [12] 23.7 µM | [13] 20 µM | [14] 28.3 µM | [15] 5.57 µM | [16] 21.1 µM | [17] 38.6 µM | [18] 33.3 µM | [19] > 100 µM | [20] 26.9 µM

CNc1nc(SC)nc2c1c(N)nn2C
inactive: [1] > 100 µM | [2] 99.5 µM | [3] > 100 µM | [4] > 100 µM | [5] > 100 µM | [6] > 100 µM | [7] > 100 µM | [8] > 100 µM | [9] > 100 µM | [10] 78 µM | [11] > 100 µM | [12] > 100 µM | [13] > 100 µM | [14] > 100 µM | [15] > 100 µM | [16] > 100 µM | [17] > 100 µM | [18] > 100 µM | [19] > 100 µM | [20] > 100 µM

O=[N+]([O-])c1ccc(Sc2c3ccccc3nc3ccccc23)nc1
inactive: [1] 2.2 µM | [2] 18.5 µM | [3] 7.87 µM | [4] 4.88 µM | [5] 2.51 µM | [6] 15.7 µM | [7] 2.09 µM | [8] 1.95 µM | [9] 3.06 µM | [10] 16.7 µM | [11] 23.8 µM | [12] 3.22 µM | [13] 6.84 µM | [14] 22 µM | [15] 2.21 µM | [16] 3.28 µM | [17] 8.71 µM | [18] 20.4 µM | [19] 18.4 µM | [20] 2.96 µM

O=C1/C(=N\NC(=S)NC2CCCCC2)c2cc([N+](=O)[O-])ccc2N1CN1CCOCC1
active: [5] 0.382 µM
inactive: [1] 5.52 µM | [2] 4.8 µM | [3] 5.11 µM | [4] 3.3 µM | [6] 4.93 µM | [7] 3.57 µM | [8] 1.96 µM | [9] 4.48 µM | [10] 1.51 µM | [11] 4.81 µM | [12] 9.53 µM | [13] 5.93 µM | [14] 3.9 µM | [15] 11.3 µM | [16] 12.4 µM | [17] 4.35 µM | [18] 11.7 µM | [19] 7.87 µM | [20] 6.76 µM

CO/C(N)=C(C#N)/N=C/c1ccccc1
inactive: [1] > 100 µM | [2] > 100 µM | [3] > 100 µM | [4] > 100 µM | [5] 50 µM | [6] > 100 µM | [7] > 100 µM | [8] > 100 µM | [9] 51.3 µM | [10] > 100 µM | [11] > 100 µM | [12] 79.6 µM | [13] > 100 µM | [14] > 100 µM | [15] > 100 µM | [16] > 100 µM | [17] > 100 µM | [18] > 100 µM | [19] 66.2 µM | [20] > 100 µM

O=C(/C=C/c1c(O)ccc2ccccc12)c1cccc(O)c1
inactive: [1] > 100 µM | [2] > 100 µM | [3] > 100 µM | [4] > 100 µM | [5] 30.1 µM | [6] > 100 µM | [7] > 100 µM | [8] > 62.8 µM | [9] > 100 µM | [10] > 100 µM | [11] > 100 µM | [12] > 100 µM | [13] > 79.8 µM | [14] > 100 µM | [15] 64.3 µM | [16] > 77.4 µM | [17] > 100 µM | [18] 42.3 µM | [19] > 100 µM | [20] > 100 µM

COc1cc2c(cc1OC)C(Cl)C(c1ccc(F)cc1)=C2Cl (stereo not given)
inactive: [1] 11.7 µM | [2] 14.9 µM | [3] 13.2 µM | [4] 13.8 µM | [5] 5.77 µM | [6] 15.1 µM | [7] 12.9 µM | [8] 9.08 µM | [9] 15.9 µM | [10] 17.4 µM | [11] 16.1 µM | [12] 15.4 µM | [13] 11.8 µM | [14] 14.7 µM | [15] 9.06 µM | [16] 15.4 µM | [17] 15.7 µM | [18] 12.8 µM | [19] 17.5 µM | [20] 13.6 µM

CC(=O)O[C@H]1C(=O)[C@@]2(C)[C@H]([C@H](OC(=O)c3cccc([N+](=O)[O-])c3)[C@]3(O)C[C@H](OC(=O)[C@H](O)[C@@H](NC(=O)c4ccccc4)c4ccccc4)C(C)=C1C3(C)C)[C@]1(OC(C)=O)CO[C@@H]1C[C@@H]2O
active: [1] 0.0159 µM | [2] 0.005 µM | [3] 0.151 µM | [4] 0.241 µM | [5] 0.00479 µM | [6] 0.00762 µM | [7] 0.00533 µM | [8] 0.022 µM | [9] 0.0043 µM | [10] 0.00783 µM | [11] 0.0047 µM | [12] 0.00619 µM | [13] 0.00912 µM | [14] 0.00785 µM | [15] 0.00341 µM | [16] 0.0133 µM | [17] 0.021 µM | [18] 0.0126 µM | [19] 0.00652 µM | [20] 0.0495 µM
